From patent US20120244192A1, “SUSTAINED RELEASE FORMULATIONS OF PEPTIDOMIMETIC DRUGS AND USES THEREOF” (priority 2009, published 2012)

Key:
C5a receptor = target: T1, C5a receptor (Mus musculus, UniProt P30993); experiment: Reverse Passive Arthus Reaction model, immune complex peritonitis; assay type: in vivo, mice; settings: intraperitoneal injection of 1 mg/kg as a liquid formulation
T1 construct: from tissue; host or cells: live mice (peritoneal neutrophil chemotaxis, in vivo)
T1 sequence (P30993 1-351): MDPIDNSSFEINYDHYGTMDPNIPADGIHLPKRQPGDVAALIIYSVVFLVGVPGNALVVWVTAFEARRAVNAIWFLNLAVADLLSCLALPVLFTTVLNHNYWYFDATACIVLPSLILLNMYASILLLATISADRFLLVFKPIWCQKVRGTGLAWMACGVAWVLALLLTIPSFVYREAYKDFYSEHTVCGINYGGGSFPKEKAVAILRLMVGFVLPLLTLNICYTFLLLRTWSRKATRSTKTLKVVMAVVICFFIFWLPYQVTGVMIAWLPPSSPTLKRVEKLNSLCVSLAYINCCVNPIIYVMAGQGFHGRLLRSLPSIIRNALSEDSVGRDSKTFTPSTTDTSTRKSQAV
Description: C5a is a potent chemokine, inducing polymorphic nucleated granulocyte (neutrophils) and monocyte/macrophage chemotaxis. In the Reverse Passive Arthus Reaction model in mice, an immune complex peritonitis is induced by the intravenous administration of ovalbumin followed by intraperitoneal administration of an anti-ovalbumin antiserum, which leads to the formation of antigen-antibody complexes and subsequent activation of the complement system, including generation of C5a [Heller et al., 1999]. (Heller et al (1999) J Immunol 163; 985-994).

C5aR = target: T2, C5aR (Mus musculus, UniProt P30993); experiment: Allogenic kidney transplantation model (ischemia reperfusion injury); assay type: in vivo, mice
T2 construct: from tissue; host or cells: live mice (kidney allograft recipients, in vivo)
T2 sequence (P30993 1-351): T1 sequence (P30993 1-351)
Description: (Arumugam, T. V., Shiels I. A., Strachan, A. J., et al (2003) A small molecule C5a receptor antagonist protects kidneys from ischemia/reperfusion injury in rats. Kidney Int 63; 134-142, De Vries B, Matthijsen R A, Wolfs T G et al (2003a) Inhibition of complement factor C5 protects against renal ischemia-reperfusion injury: inhibition of late apoptosis and inflammation Transplantation 75; 375-382, De Vries B, Kohl J, Leclercq W K et al (2003b) Complement factor C5a mediates renal ischemia-reperfusion injury independent of neutrophils. J Immunol 170; 3883-3889.) JPE1375 liquid formulation is active in an allogenic transplantation model in mice. In this model rejection of the transplant is based on an ischemia reperfusion injury with measures of animal/graft survival and renal function. Blockade of C5aR with JPE1375 liquid formulation after transplantation prolonged survival of the animals from days to greater than 12 weeks compared to controls. C5aR blockade with JPE1375 microparticle sustained release formulation is expected to provide similar benefit after a single dose.

Hoo-Phe-Orn-Pro-hle-Pff-Phe-NH2 [JPE1375]
inhibition of C5a receptor mediated chemotaxis (C5a receptor): high in vivo potency | survival of the animals (C5aR; after transplantation, prolonged from days, compared to controls): greater than 12 weeks | activity in allogenic transplantation model (C5aR; liquid formulation): active
